Results on 27 compounds are retold here after patent US8367666B2 (priority 2004, dated 2013).

Usually melting point stands for the temperature of the solid-liquid transition.

Series [1] deals with T1, CB2 receptor (Homo sapiens, UniProt P34972). Nature of the series: Human cannabinoid receptor bonding inhibition test ([3H]CP55940), CB2. Type of series: binding. Set-up: expressed in transfected cells; membrane fraction.
The target in series [2] is T2, CB1 receptor (Homo sapiens, UniProt P21554). Nature of the series: cAMP formation inhibition experiment through a cannabinoid receptor (forskolin stimulation), CB1. Type of series: cell-based. Set-up: expressed in transfected cells; host or cells: CHO cells. A digest of the protocol:
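CHO cells expressing human CB1 were pre-incubated with compound for 15 min, then stimulated with forskolin (final 4 μM) for 20 min. The reaction was stopped with 1 M HCl and supernatant cAMP was measured by cAMP kit.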
For orientation: cAMP levels reflect the balance of adenylyl cyclase and phosphodiesterase activity.

Series [3] addresses T1, CB2 receptor. Nature of the series: cAMP formation inhibition experiment through a cannabinoid receptor (forskolin stimulation), CB2. The format is cell-based. Set-up: expressed in transfected cells; host or cells: CHO cells.
Experimental: After the reaction had been stopped by adding 1M hydrochloric acid, the amount of cAMP in the supernatant was measured with the use of Cyclic AMP kit (made by the CIS Diagnostic Corp.).
The subject of series [4] is scratching action induced by Compound 48/80. Nature of the series: Anti-pruritic activity test by application (Compound 48/80 scratching). The format is in vivo, mouse (Crj:CD-1 (ICR)). To be noted: topical, read-out: Itching inhibition ratio % (Concentration %). A digest of the protocol: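 Female CD-1 (ICR) mice, 6–10 weeks, received 50 μL compound in acetone topically on clipped dorsal skin (acetone alone for controls). 15 min later, 3 μg Compound 48/80 injected intradermally at the site; hind-leg scratching counted over 30 min, 5–7 mice per group, means compared by Welch's t-test.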

The target of series [5] is T2, CB1 receptor. Briefly: Human cannabinoid receptor bonding inhibition test ([3H]CP55940), CB1. Set-up: expressed in transfected cells; membrane fraction. The format is binding.
Where [6] appears, read: read-out: Agonist activity (nM) CB1.
Setting [7] is: [3H]CP55940 0.5 nM, membrane preparation of CHO cells expressing CB1, Ki calculated from IC50, read-out: Binding activity (nM) CB1.
Where [8] appears, read: [3H]CP55940 0.5 nM, membrane preparation of CHO cells expressing CB2, Ki calculated from IC50, read-out: Binding activity (nM) CB2.

Molecules are shown by their SMILES. Where a name gives a salt, the structure may show the parent alone. Read-outs that look alike come from different tables or passages of the source. A value given as a limit tells only on which side of the number the result lay.

T2 sequence (P21554 whole entry): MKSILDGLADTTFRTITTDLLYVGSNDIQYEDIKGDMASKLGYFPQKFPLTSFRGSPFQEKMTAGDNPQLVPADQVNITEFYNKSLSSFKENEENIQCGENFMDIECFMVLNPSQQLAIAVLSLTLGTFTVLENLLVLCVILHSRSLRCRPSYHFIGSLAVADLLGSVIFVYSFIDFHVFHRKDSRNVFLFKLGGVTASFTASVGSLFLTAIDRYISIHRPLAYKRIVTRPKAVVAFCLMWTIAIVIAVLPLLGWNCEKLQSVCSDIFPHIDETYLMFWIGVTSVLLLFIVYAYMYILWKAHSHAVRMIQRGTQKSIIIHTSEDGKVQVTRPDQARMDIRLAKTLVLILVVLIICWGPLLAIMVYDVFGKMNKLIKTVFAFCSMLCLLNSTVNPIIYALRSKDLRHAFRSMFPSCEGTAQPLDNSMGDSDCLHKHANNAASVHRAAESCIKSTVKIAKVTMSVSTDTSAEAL
T1 sequence (P34972 whole entry): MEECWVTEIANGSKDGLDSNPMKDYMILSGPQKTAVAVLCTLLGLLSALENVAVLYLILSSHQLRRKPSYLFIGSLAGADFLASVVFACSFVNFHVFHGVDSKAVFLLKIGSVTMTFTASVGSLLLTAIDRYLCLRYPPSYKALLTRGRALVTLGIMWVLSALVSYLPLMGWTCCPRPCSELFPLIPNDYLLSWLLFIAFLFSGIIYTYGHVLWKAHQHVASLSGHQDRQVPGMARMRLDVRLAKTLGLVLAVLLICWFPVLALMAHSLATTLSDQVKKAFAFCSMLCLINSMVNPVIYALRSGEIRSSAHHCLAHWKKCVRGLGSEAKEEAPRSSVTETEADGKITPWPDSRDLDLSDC

Consider `CC(C)(NC(=O)c1cc2c(n(CC3CCCCC3)c1=O)CCCCCC2)C(=O)NN`, for which the melting point was 177 to 180 °C.

Turning to `CN1CCN(C(=O)C(C)(C)NC(=O)c2cc3c(n(CC4CCCCC4)c2=O)CCCCCC3)CC1`, the melting point fell in the range of 183 to 184 °C.

Regarding `COC(=O)NCCCn1c2c(cc(C(=O)NC(C)(C)C(=O)OC)c1=O)CCCCCC2` (as salt: phosphate), the melting point was 135 to 136 °C.

For the compound `CCCCn1c(CCC)c(CC)cc(C(=O)NC2CCCCC2C(=O)O)c1=O` (stereo not drawn), the melting point was in the range of 167 to 169 °C.

For `CCCCn1c(CCC)c(CC)cc(C(=O)NC2(C(=O)O)CCCCC2)c1=O` [Compound I-411], the Ki in series [1] (read-out: Binding activity (nM) CB2) was 382 nM; in series [5] (read-out: Binding activity (nM) CB1) it was over 2000 nM. Also, the IC50 was over 2000 nM in series [2] and 556 nM in series [3] (read-out: Agonist activity (nM) CB2). For the same compound, in series [4] (Mus musculus), the inhibition in vivo at 0.5 % was 80%.

`CC(C)(CNCCC(N)=O)NC(=O)c1cc2c(n(CC3CCCCC3)c1=O)CCCCCC2` [Compound I-588]: the Ki amounted to 10 nM in series [1] and 41 nM in series [5]. Further, the figures for the IC50 in series [2] (setting [6]) and in series [3] were 72 nM and 5.7 nM, respectively. Further, the inhibition in vivo at 1 % in series [4] (Mus musculus) was found to be 81%.

Turning to `CC(C)(NC(=O)c1cc2c(n(CCCNS(C)(=O)=O)c1=O)CCCCCC2)C(=O)O`, the melting point was in the range of 183 to 184 °C.

With `CC(C)(NC(=O)c1cc2c(n(CC3CCCCC3)c1=O)CCCCCC2)C(N)=O` [Compound I-002], the Ki in series [1] is 7.1 nM; in series [5] it was 48 nM. For the same compound, the IC50 in series [2] (setting [6]) turned out to be 11 nM; in series [3] it was 4.4 nM. In addition, the inhibition in vivo at 2.5 % in series [4] (Mus musculus) worked out at 68%.

As for `O=C(O)Cc1csc(NC(=O)c2cc3c(n(CC4CCCCC4)c2=O)CCCCCC3)c1` [IV-029], the figures for the Ki in series [1] and in series [5] (setting [7]) were 43 nM and 1320 nM, respectively. Moreover, the IC50 in series [2] is 606 nM; in series [3] it was 22 nM. Moreover, in series [4] (Mus musculus), the inhibition in vivo at 1 % was 93%.

On to `CC(C)C[C@@H](CC(=O)O)NC(=O)c1cc2c(n(Cc3ccc(F)cc3)c1=O)CCCCCC2` [II-078], for which the Ki is 27 nM in series [1] and 1450 nM in series [5] (setting [7]). Moreover, the IC50 in series [2] was 252 nM; in series [3] it was under 2 nM. For the same compound, in series [4] (Mus musculus), the inhibition in vivo at 3 % was 94%.

Regarding `O=C(O)Cc1nsc(NC(=O)c2cc3c(n(CC4CCCCC4)c2=O)CCCCCC3)n1` [Compound X-21], the Ki was 3.3 nM in series [1] and 1770 nM in series [5] (setting [7]). In addition, the IC50 in series [2] was over 2000 nM; in series [3], 30 nM. The inhibition in vivo at 1 % in series [4] (Mus musculus) worked out at 106%.

Take `O=C(O)CC(NC(=O)c1cc2c(n(CC3CCCCC3)c1=O)CCCCCC2)C(F)(F)F` (stereo not drawn) [II-076]: the Ki in series [1] is 41 nM; in series [5] (setting [7]), over 2000 nM. The IC50 in series [2] is over 2000 nM; in series [3], 1.2 nM. Further, the inhibition in vivo at 3 % in series [4] (Mus musculus) turned out to be 86%.

As for `C/C=C/C(CC(=O)O)NC(=O)c1cc2c(n(CC3CCCCC3)c1=O)CCCCCC2` (stereo not drawn) [II-075], the Ki in series [1] was 48 nM; in series [5] (setting [7]), 652 nM. For the same compound, the IC50 was found to be 290 nM in series [2] and 4.6 nM in series [3]. For the same compound, the inhibition in vivo at 3 % in series [4] (Mus musculus) was determined as 95%.

As for `O=C(O)CCc1csc(NC(=O)c2cc3c(n(CC4CCCCC4)c2=O)CCCCCC3)n1` [Compound X-64], the Ki in series [1] (setting [8]) was 18 nM; in series [5] (setting [7]), 580 nM. Besides, the IC50 in series [2] (inhibition of forskolin (4 μM)-stimulated cAMP formation, CHO cells expressing human CB1, read-out: Agonist activity (nM) CB1) amounted to 454 nM; in series [3] (inhibition of forskolin (4 μM)-stimulated cAMP formation, CHO cells expressing human CB2, read-out: Agonist activity (nM) CB2) it was 15 nM. Also, the inhibition in vivo at 1 % in series [4] (applied as acetone solution 50 μL, concentration 1.0%, mouse, Compound 48/80) was 99%.

Turning to `O=C(O)Cc1cnc(NC(=O)c2cc3c(n(CCCC(F)(F)F)c2=O)CCCCCC3)s1` [Compound X-115], the results for the Ki in series [1] and in series [5] (setting [7]) were 3.3 nM and 1220 nM, respectively. In addition, the results for the IC50 in series [2] and in series [3] were over 2000 nM and 8.6 nM, respectively. In addition, in series [4] (Mus musculus), the inhibition in vivo at 0.5 % is 67%.

For `CCCC(CC(=O)O)NC(=O)c1cc2c(n(CC3CCCCC3)c1=O)CCCCCC2` (stereo not drawn) [Compound X-66], the Ki is 92 nM in series [1] and over 2000 nM in series [5] (setting [7]). For the same compound, the figures for the IC50 in series [2] and in series [3] were 549 nM and 50 nM, respectively. Moreover, in series [4] (Mus musculus), the inhibition in vivo at 1 % amounted to 71%.

In the case of `CC(C)(NC(=O)c1cc2c(n(CC3CCCCC3)c1=O)CCCCCC2)C(=O)N1CCC(NS(C)(=O)=O)CC1` [Compound I-572], the Ki in series [1] (setting [8]) was 4.4 nM; in series [5] (setting [7]), 39 nM. Besides, the IC50 in series [2] (setting [6]) was 397 nM; in series [3] it was 2.4 nM. In series [4] (Mus musculus), the inhibition in vivo at 1 % came out at 97%.

For `CC(C)(NC(=O)c1cc2c(n(CC3CCCCC3)c1=O)CCCCCC2)C(=O)N1CCC(NS(=O)(=O)C(C)(C)C)CC1` [Compound I-048], the Ki in series [1] was 2.6 nM; in series [5], 118 nM. Moreover, the IC50 in series [2] (setting [6]) was 328 nM; in series [3], 17 nM. In addition, in series [4] (Mus musculus), the inhibition in vivo at 3 % was determined as 58%.

Consider `O=C(NC(C(=O)O)C(F)(F)F)c1cc2c(n(CC3CCCCC3)c1=O)CCCCCC2` (stereo not drawn) [Compound X-229], for which the Ki in series [1] was 12 nM; in series [5] (setting [7]), 482 nM. Also, the IC50 in series [2] came to 369 nM; in series [3] it was 27 nM. Moreover, in series [4] (Mus musculus), the inhibition in vivo at 0.5 % was determined as 105%.

Take `CC[C@@H](C)[C@H](NC(=O)c1cc(C)c(C)n(CC2CCCCC2)c1=O)C(=O)OC` [Compound I-089]: the Ki in series [1] and in series [5] was under 2 nM each time. Moreover, the IC50 in series [2] (setting [6]) and in series [3] was under 2 nM throughout. Further, the inhibition in vivo at 0.5 % in series [4] (Mus musculus) was determined as 65%.

Regarding `CC(C)C[C@@H](CC(=O)O)NC(=O)c1cc2c(n(CC3CCCCC3)c1=O)CCCCCC2` [II-069], the Ki in series [1] is 3.4 nM; in series [5], 88 nM. Further, the IC50 came to 5.6 nM in series [2] (setting [6]) and 2.1 nM in series [3]. The inhibition in vivo at 3 % in series [4] (Mus musculus) was 84%.

Regarding `CC(C)(C)OC(=O)NC1CCN(C(=O)C(C)(C)NC(=O)c2cc3c(n(CC4CCCCC4)c2=O)CCCCCC3)CC1` [Compound I-570], the Ki in series [1] came to 11 nM; in series [5], 68 nM. Besides, the IC50 in series [2] (setting [6]) amounted to 709 nM; in series [3] it was 12 nM. Further, the inhibition in vivo at 3 % in series [4] (Mus musculus) was found to be 84%.

In turn, `CC(C)(NC(=O)c1cc2c(n(CC3CCCCC3)c1=O)CCCCCC2)C(=O)NNS(C)(=O)=O` [Compound I-052, 1-cyclohexylmethyl-2-oxo-1,2,5,6,7,8,9,10-octahydro-cycloocta[b]pyridine-3-carboxylic acid (1-methylsulfonylhydrazinocarbonyl-1-methyl-ethyl)-amide] yielded a melting point of 177 to 178 °C. The IC50 in series [2] (setting [6]) came out at 49 nM. In series [3], this compound came in with an IC50 of 8.1 nM. Further, the inhibition in vivo at 3 % in series [4] (Mus musculus) stood at 80%.

With `CC(C)(NC(=O)c1cc2c(n(CC3CCCCC3)c1=O)CCCCCC2)C(=O)C1CCCC(C(N)=O)N1` (stereo not drawn) [Compound I-580], the Ki is 7.4 nM in series [1] and 24 nM in series [5]. Also, the IC50 in series [2] (setting [6]) amounted to 41 nM; in series [3], 48 nM. The inhibition in vivo at 3 % in series [4] (Mus musculus) amounted to 98%.

For `CC(C)(CCNC(=O)c1cc2c(n(CC3CCCCC3)c1=O)CCCCCC2)C(=O)O` [III-017], the Ki is 15 nM in series [1] and 149 nM in series [5] (setting [7]). Moreover, the IC50 in series [2] amounted to 322 nM; in series [3], 35 nM. Also, the inhibition in vivo at 3 % in series [4] (Mus musculus) was 76%.

Take `COC(=O)C(C)(C)NC(=O)c1cc2c(n(CC3CCCCC3)c1=O)CCCCCC2` [Compound I-084, methyl 2-[(1-cyclohexylmethyl-2-oxo-1,2,5,6,7,8,9,10-octahydro-cycloocta[b]pyridine-3-carbonyl]-amino}-2-methyl-propionate]: the Ki in series [1] and in series [5] was under 2 nM in each case. The IC50 in series [2] (setting [6]) and in series [3] was under 2 nM each time. Further, the inhibition in vivo at 0.1 % in series [4] (Mus musculus) was determined as 60%.

For the compound `CC(C)(NC(=O)c1cc2c(n(CC3CCCCC3)c1=O)CCCCCC2)C(=O)Nc1ccc(NS(C)(=O)=O)cc1` [Compound I-533], the Ki was under 2 nM in series [1] and 21 nM in series [5]. The IC50 in series [2] (setting [6]) was over 2000 nM; in series [3] it was under 2 nM. Besides, the inhibition in vivo at 3 % in series [4] (Mus musculus) worked out at 73%.
